Results published in US20230312524A1, “ALPHA1A-ADRENERGIC RECEPTOR AGONISTS AND METHODS OF USE” (CuraSen Therapeutics, Inc., priority 2020, published 2023).
Where two headings read alike, the source gives them in different places.

Target: T1, α1A-ARS (Homo sapiens, UniProt P35348)
T1 sequence (P35348 1-466): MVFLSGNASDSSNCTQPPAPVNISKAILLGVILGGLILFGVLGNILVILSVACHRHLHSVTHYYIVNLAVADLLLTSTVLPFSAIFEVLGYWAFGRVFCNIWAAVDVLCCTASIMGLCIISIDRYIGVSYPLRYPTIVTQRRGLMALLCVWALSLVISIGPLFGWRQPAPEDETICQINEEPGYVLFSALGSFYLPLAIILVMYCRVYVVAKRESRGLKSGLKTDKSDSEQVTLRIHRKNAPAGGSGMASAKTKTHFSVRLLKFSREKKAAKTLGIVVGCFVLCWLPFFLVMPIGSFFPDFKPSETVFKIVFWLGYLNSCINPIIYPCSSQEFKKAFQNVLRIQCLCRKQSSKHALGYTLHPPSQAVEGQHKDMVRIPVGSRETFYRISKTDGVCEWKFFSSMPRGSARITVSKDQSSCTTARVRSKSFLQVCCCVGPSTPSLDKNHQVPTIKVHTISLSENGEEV
Experiment: Calcium flux assay (Calcium 6 dye) in cells expressing an α1-AR
Assay type: cell-based
Settings: for EC50: mean of at least three experiments, read-out: Average PEC50; for Emax: read-out: Average Emax
Text: Calcium flux experimental design: alpha-1 adrenergic receptors (α1-ARs) couple to Gq proteins, which results in downstream activation of phospholipase C and release of calcium from intracellular stores. Intracellular calcium increase upon α1-AR activation can be detected by Calcium 6 dye.
Cell preparation: cells expressing an α1-AR were washed in warmed phosphate-buffered saline to remove medium and harvested using versene (Caisson Labs, catalog #EDL01).
Media was removed from cells by tapping plates upside-down on absorbent wipes, followed by 15 second upside-down 50×g centrifugation, again on absorbent wipes. 12 μL cell dye solution was added to cells using a reagent dispenser (Integra viaFILL) and cells were incubated for 90 minutes at 37° C., 5% CO2.
Compound preparation: candidate alpha-adrenergic compounds, dissolved to 10 mM in DMSO, were diluted in_assay buffer (HBSS/H-EPES containing 2 mM CaCl2 and 2 mM probenecid sodium salt). […] On all assay plates, vehicle (DMSO) and positive control (10 μM epinephrine) conditions were included on the plate, as well as a dose-response curve of epinephrine. […] 384 well compound plates were centrifuged briefly at 250×g, sealed (Axygen PCR-SP) and incubated at 37° C. until the 90 minute cell dye incubation was complete.
Calcium 6 stained cells and 384 well compound plates were loaded onto the Flexstation and incubated on the machine for 5 minutes before initiating the assay.
For each assay well, baseline Calcium 6 fluorescence was detected for 18 seconds prior to 12 μL compound addition at 12 μL per second. Changes in Calcium 6 fluorescence were detected for a further 22 seconds, for a total read time of 40 seconds. All detection was performed with medium gain sensitivity, bottom read, with 6 flashes per read.
Data analysis: for calcium flux, analysis of maximum change from baseline over the 40-second read time was determined using Softmax Pro and data was exported as raw text files. Potency estimates (EC50) were derived from dose response curves (maximum change from baseline versus the log concentration of test compound) fit by four-parameter nonlinear regression using Graphpad Prism. Efficacy was determined by comparing the magnitude of the test compound signal window (fitted curve max−min) with the signal window of the full agonist control, epinephrine. […] All experiments were repeated a minimum of three times, with the average (mean) potency and maximum effect relative to the within-plate full agonist dose-response comparator reported.

[1] = calcium flux, α1A-AR, maximum effect relative to full agonist epinephrine

| SMILES | EC50 (calcium flux, α1A-AR) [nM] | Emax [%] | Emax [1] [%] |
| --- | --- | --- | --- |
| FC(F)(F)Cc1cc(Cl)ccc1CC1=NCCN1 [Compound 90] | > 1000 | 21 to 60 | – |
| Clc1ccc(CC2=NCCN2)c(-n2cccc2)c1 [Compound 91] | 10 to 977 | – | > 61 |
| FC(F)(F)c1coc2c(CC3=NCCN3)cccc12 [Compound 92] | > 1000 | 21 to 60 | – |
| FC(F)(F)c1ccc(CC2=NCCN2)c(-n2cccn2)c1 [Compound 93] | 10 to 977 | – | > 61 |
| Cc1coc(-c2cc(Cl)ccc2CC2=NCCN2)n1 [Compound 94] | 10 to 977 | – | 21 to 60 |
| FC(F)(F)c1ccc(CC2=NCCN2)c(C2CCCCC2)c1 [Compound 96] | > 1000 | – | 21 to 60 |
| CN(CC(F)(F)F)c1cc(C(F)(F)F)ccc1CC1=NCCN1 [Compound 97] | > 1000 | – | < 20 |
| Cc1cc2c(C)c(CC3=NCCN3)cc(Cl)c2o1 [Compound 98] | 10 to 977 | 21 to 60 | – |
| CCc1c(Cl)cccc1CC1=NCCN1 [Compound 99] | > 1000 | 21 to 60 | – |
| Cc1c(CC2=NCCN2)cc(Cl)c2[nH]ccc12 [Compound 100] | < 9.77 | > 61 | – |
| Cc1c(CC2=NCCN2)cc(Cl)c2c1ccn2C [Compound 101] | < 9.77 | > 61 | – |
| CC(C)Oc1cc(Cl)ccc1CC1=NCCN1 [Compound 102] | 10 to 977 | 21 to 60 | – |
| Clc1ccc(CC2=NCCN2)c(-c2ccon2)c1 [Compound 104] | 10 to 977 | – | > 61 |
| Cc1c(CC2=NCCN2)cc(Cl)c2c1cnn2C [Compound 105] | 10 to 977 | 21 to 60 | – |
| Cc1c(CC2=NCCN2)cc(Cl)c2nn(C)cc12 [Compound 106] | 10 to 977 | 21 to 60 | – |
| Cc1coc2c(Cl)cc(CC3=NCCN3)c(C)c12 [Compound 107] | < 9.77 | 21 to 60 | – |
| Cc1c(CC2=NCCN2)cc(Cl)c2[nH]ncc12 [Compound 108] | 10 to 977 | > 61 | – |
| Clc1cccc(CC2=NCCN2)c1-n1cccc1 [Compound 109] | 10 to 977 | – | > 61 |
| CCc1cc(S(=O)(=O)CF)ccc1CC1=NCCN1 [Compound 110] | 10 to 977 | – | > 61 |
| CCc1cc(S(=O)(=O)C(F)(F)F)ccc1CC1=NCCN1 [Compound 111] | 10 to 977 | – | > 61 |
| CCc1cc(S(=O)(=O)C(F)F)ccc1CC1=NCCN1 [Compound 112] | 10 to 977 | – | > 61 |
| CCc1cc(S(C)(=O)=O)ccc1CC1=NCCN1 [Compound 113] | 10 to 977 | – | > 61 |
| FC(F)Oc1cc(Cl)ccc1CC1=NCCN1 [Compound 114] | 10 to 977 | 21 to 60 | – |
| Cc1cccn1-c1c(Cl)cccc1CC1=NCCN1 [Compound 115] | > 1000 | – | 21 to 60 |
| Cc1cccn1-c1cc(Cl)ccc1CC1=NCCN1 [Compound 116] | 10 to 977 | – | > 61 |
| CC(C)C(F)(F)c1cc(Cl)ccc1CC1=NCCN1 [Compound 117] | 10 to 977 | 21 to 60 | – |
| Clc1ccc(CC2=NCCN2)c(C2CCOCC2)c1 [Compound 118] | > 1000 | – | < 20 |
| Clc1ccc(CC2=NCCN2)c(CC2CCOCC2)c1 [Compound 119] | > 1000 | – | < 20 |

| SMILES | EC50 (calcium flux, α1A-AR) [nM] | Emax [%] | Emax [1] [%] |
| --- | --- | --- | --- |
| Clc1ccc(CC2=NCCN2)c(Cc2ccccc2)c1 [Compound 120] | > 1000 | – | < 20 |
| CCC(F)(F)c1cc(Cl)ccc1CC1=NCCN1 [Compound 121] | 10 to 977 | 21 to 60 | – |
| Clc1ccc(CC2=NCCN2)c(N2CCCC2)c1 [Compound 122] | 10 to 977 | – | > 61 |
| Cc1cc(Cl)cc(C)c1CC1=NCCN1 [Compound 123] | 10 to 977 | > 61 | – |
| COCc1cc(Cl)ccc1CC1=NCCN1 [Compound 124] | 10 to 977 | – | 21 to 60 |
| Cc1cc(Cl)cc(Cl)c1CC1=NCCN1 [Compound 125] | 10 to 977 | > 61 | – |
| Cc1c(CC2=NCCN2)cccc1C(F)(F)F [Compound 126] | 10 to 977 | 21 to 60 | – |
| Cc1ccc(C(F)(F)F)cc1CC1=NCCN1 [Compound 127] | 10 to 977 | > 61 | – |
| Cc1cc(OC(F)(F)F)ccc1CC1=NCCN1 [Compound 128] | 10 to 977 | 21 to 60 | – |
| Cc1cc(OC(F)F)ccc1CC1=NCCN1 [Compound 129] | 10 to 977 | 21 to 60 | – |
| Cc1cc(CC2=NCCN2)cc(C(F)(F)F)c1 [Compound 130] | 10 to 977 | > 61 | – |
| FC(F)(F)c1cccc(CC2=NCCN2)c1Cl [Compound 131] | 10 to 977 | 21 to 60 | – |
| FC(F)(F)c1ccc(Cl)c(CC2=NCCN2)c1 [Compound 132] | 10 to 977 | > 61 | – |
| FC(F)(F)c1ccc(CC2=NCCN2)c(Cl)c1 [Compound 133] | 10 to 977 | 21 to 60 | – |
| FC(F)(F)c1cccc(Cl)c1CC1=NCCN1 [Compound 134] | 10 to 977 | > 61 | – |
| FC(F)(F)Oc1ccc(CC2=NCCN2)c(Cl)c1 [Compound 135] | 10 to 977 | 21 to 60 | – |
| FC(F)Oc1ccc(CC2=NCCN2)c(Cl)c1 [Compound 136] | 10 to 977 | 21 to 60 | – |
| CCC(F)(F)c1c(Cl)cccc1CC1=NCCN1 [Compound 137] | 10 to 977 | 21 to 60 | – |
| FC(F)c1ccc(CC2=NCCN2)c(Cl)c1 [Compound 138] | 10 to 977 | > 61 | – |
| Cc1c(CC2=NCCN2)ccc(S(C)(=O)=O)c1Cl [Compound 139] | > 1000 | – | 21 to 60 |
| Cc1c(CC2=NCCN2)ccc(S(=O)(=O)CF)c1Cl [Compound 140] | > 1000 | – | > 61 |
| CCc1c(CC2=NCCN2)ccc(S(=O)(=O)CF)c1Cl [Compound 141] | > 1000 | – | > 61 |
| C[C@@H](F)c1cc(Cl)ccc1CC1=NCCN1 [Compound 142] | 10 to 977 | 21 to 60 | – |
| CCc1c(CC2=NCCN2)ccc(S(C)(=O)=O)c1Cl [Compound 144] | > 1000 | – | 21 to 60 |
| C[C@H](O)c1cc(Cl)ccc1CC1=NCCN1 [Compound 145] | > 1000 | – | < 20 |
| C[C@@H](O)c1cc(Cl)ccc1CC1=NCCN1 [Compound 146] | > 1000 | – | < 20 |
| C[C@H](F)c1cc(Cl)ccc1CC1=NCCN1 [Compound 147] | 10 to 977 | 21 to 60 | – |
